Key:
[1] = system: human primary macrophages (PHM); assay: Marker expression (immunohistochemistry) in human primary macrophages with SP alone or with NK1 antagonists; format: cell-based; details: SP 1 μM + antagonist 1 μM; 48 h
Experimental: In this sense the next step was to analyze the effect exerted by the treatment with non-peptide NK1 antagonists in human primary macrophages (PHM) obtained and purified from pleural effusion samples obtained from men with chronic age range between 45 and 55 years. Briefly, the pleural fluid from chronic (rich in macrophages) was centrifuged.
After 48 hours of culture, cells were harvested and cellular paraffin blocks were constructed for immunohistochemical analysis (see Example 1). To analyze the expression of markers EGF, MMP-9, VEGF and IL-8 antibodies were used as follows: EGF (rabbit monoclonal antibody, anti-EGF; 07-1432. Merck-Millipore), MMP-9 (polyclonal rabbit anti-MMP-9: SAB4501896, Sigma-Aldrich), VEGF (mouse monoclonal anti-VEGF, GF25-100UG, Merck-Millipore) and TNF-α (mouse monoclonal anti-TNF-α, number MAB 1021 catalogue, obtained from Merck-Millipore). All of these antibodies were used at a concentration of 1/1000. System for labelling with a secondary antibody specific for the primary antibodies obtained from rabbit or mouse was used, as was necessary in each case, both the Envision (Dako). All experiments were carried out sixfold.

[2] = system: fibroblasts (PHF) co-cultured with tumor cells, ovarian carcinoma (EFO-27); assay: Marker expression (IHC) in PHF co-cultured with EFO-27 tumor cells; format: cell-based, human; details: co-culture with EFO-27; SP 1 μM + antagonist 1 μM; 48 h;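 further: values are the percentage of PHF fibroblasts positive for each marker, cultured in fresh plasma from a healthy human donor, each experiment run in six replicates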
Experimental: (§1) All cultures were maintained 48 hours, following which the same cells were included in paraffin blocks for subsequent analysis of the expression of different markers by immunohistochemistry (see Example 1). […] All experiments were carried out sixfold. Analyzed markers in fibroblast cells (stromal cells) were: TGF-α, TGF-β1, TGF-β2, TGF-β3, SPARC, MMP-3, MMP-7, MMP-9, MMP-11, MMP-13 and MMP-14.

[3] = system: fibroblasts (PHF) co-cultured with human choriocarcinoma tumor cells (AC-1M32); assay: Marker expression (IHC) in PHF co-cultured with AC-1M32 tumor cells; format: cell-based; details: co-culture with AC-1M32; SP 1 μM + antagonist 1 μM; 48 h;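 further: Read-out is the percentage of PHF fibroblasts positive for each marker, with cells grown in fresh healthy-donor blood plasma, six replicates, reference being fibroblasts cultured alone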
Experimental: as §1

[4] = system: fibroblasts (PHF) co-cultured with tumor cells of human cervix carcinoma (KB); assay: Marker expression (IHC) in PHF co-cultured with KB tumor cells; format: cell-based; details: co-culture with KB; SP 1 μM + antagonist 1 μM; 48 h;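 further: percentage of PHF fibroblasts showing expression of each marker, cultured in fresh blood plasma from a healthy human donor, six replicates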
Experimental: as §1

[5] = system: fibroblasts (PHF) co-cultured with tumor cells in human prostate carcinoma (22Rv1); assay: Marker expression (IHC) in PHF co-cultured with 22Rv1 tumor cells; format: cell-based; details: co-culture with 22Rv1; SP 1 μM + antagonist 1 μM; 48 h;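 further: cultures grown on fresh plasma from a healthy donor, each experiment run sixfold, values give the percentage of fibroblasts positive for the given marker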
Experimental: as §1

[6] = system: fibroblasts (PHF) co-cultured with human glioma tumor cells (GAMG); assay: Marker expression (IHC) in PHF co-cultured with GAMG tumor cells; format: cell-based; details: co-culture with GAMG; SP 1 μM + antagonist 1 μM; 48 h;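 further: percentage of PHF fibroblasts positive for each marker, cultured in fresh plasma from a healthy donor, six replicates, with fibroblasts cultured alone as reference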
Experimental: as §1

[7] = system: fibroblasts (PHF) co-cultured with human melanoma tumor cells (MEL-HO1); assay: Marker expression (IHC) in PHF co-cultured with MEL-HO1 tumor cells; format: cell-based; details: PHF co-cultured with MEL-HO1 + SP + NK1 antagonist;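 further: values are the percentage of fibroblasts positive for each marker, with cultures grown in fresh healthy-donor blood plasma and each experiment run six times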
Experimental: as §1

[8] = system: fibroblasts (PHF) co-cultured with human neuroblastoma tumor cells (KELLY); assay: Marker expression (IHC) in PHF co-cultured with KELLY tumor cells; format: cell-based; details: PHF co-cultured with KELLY + SP + NK1 antagonist;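 further: Co-cultures grown on healthy-donor human blood plasma, run in six replicates, value is percentage of fibroblasts positive for each marker, compared with fibroblasts cultured alone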
Experimental: as §1

[9] = system: fibroblasts (PHF) co-cultivated with tumor cell lymphoblastic leukemia B (SDI); assay: Marker expression (IHC) in PHF co-cultured with SDI tumor cells; format: cell-based, human; details: PHF co-cultivated with SDI + SP + NK1 antagonist
Experimental: as §1

[10] = system: leukocyte cells (mono and polymorphonuclear) in co-culture with cells isolated from primary human tumors; assay: Marker expression (IHC) in leukocytes co-cultured with primary human tumor cells (colon, pancreatic, lung carcinoma, glioma, melanoma); format: cell-based; details: SP 1 μM + antagonist 1 μM;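 further: tumor cells and leukocytes came from the same patients, co-culture contents were paraffin-embedded for immunohistochemistry with antibodies to TGF-β2 or NF-kB, leukocytes cultured alone served as control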
Experimental: To check that the interaction of the human primary tumor cells with cells of the immune/inflammatory (mono and polymorphonuclear leukocytes) cells, stimulates the secretion of substances of importance for survival and tumor progression, cultures were carried out using sets of immune cells/inflammatory (mono and polymorphonuclear leukocytes) with tumor cells obtained directly from primary human tumors of the same patients.
The same method described in Example 7 and 9 was used to obtain tumor cells from primary human tumors. Similarly cultured immune cells/inflammatory (mono and polymorphonuclear leukocytes) were used as control and secondly, cultured tumor cells isolated from patients in the presence of immune cells/inflammatory (mono and polymorphonuclear leukocytes).
Then, paraffin blocks were prepared with the contents of each of the groups mentioned previously for expression studies using immunohistochemistry. On this occasion, in order to identify the secretion of substances with importance for the survival and progression of tumor the following markers were analyzed: TGF-β2 (SAB4502956) and NF-kB (SAB4501992) using specific antibodies against them. All antibodies used were rabbit polyclonal antibodies obtained from Sigma Aldrich and were used at a concentration of 1/1000. Immunohistochemical techniques were performed and evaluated as described in previous examples.

[11] = system: macrophages in co-culture with cells isolated from primary human tumors; assay: Marker expression (IHC) in macrophages co-cultured with primary human tumor cells (colon, breast, ovarian, lung carcinoma, melanoma); format: cell-based; details: SP 1 μM + antagonist 1 μM;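 further: macrophages came from pleural or peritoneal washings of the patient who also supplied the tumor cells, and both were co-cultured on fresh blood plasma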
[12] = co-culture with cells isolated from colon carcinoma
[13] = co-culture with cells isolated from glioma
[14] = co-culture with cells isolated from lung carcinoma
[15] = co-culture with cells isolated from melanoma
[16] = co-culture with cells isolated from pancreatic carcinoma
[17] = co-culture with cells isolated from breast carcinoma
[18] = co-culture with cells isolated from ovarian carcinoma

Cc1cc(F)ccc1[C@H]1CNCCN1C(=O)N(C)[C@H](C)c1cc(C(F)(F)F)cc(C(F)(F)F)c1 [Vestipitant]
0%: macrophages expressing EGF [1] | macrophages expressing MMP-9 [1] | macrophages expressing VEGF [1] | PHF cells expressing MMP-3 [2] | PHF cells expressing MMP-7 [2] | PHF cells expressing MMP-9 [2] | PHF cells expressing MMP-11 [2] | PHF cells expressing MMP-13 [2] | PHF cells expressing MMP-14 [2] | PHF cells expressing SPARC [2] | PHF cells expressing TGF-α [2] | PHF cells expressing TGF-β1 [2] | PHF cells expressing TGF-β2 [2] | PHF cells expressing TGF-β3 [2] | PHF cells expressing MMP-3 [3] | PHF cells expressing MMP-7 [3] | PHF cells expressing MMP-9 [3] | PHF cells expressing MMP-11 [3] | PHF cells expressing MMP-13 [3] | PHF cells expressing MMP-14 [3] | PHF cells expressing SPARC [3] | PHF cells expressing TGF-α [3] | PHF cells expressing TGF-β1 [3] | PHF cells expressing TGF-β2 [3] | PHF cells expressing TGF-β3 [3] | PHF cells expressing MMP-3 [4] | PHF cells expressing MMP-7 [4] | PHF cells expressing MMP-9 [4] | PHF cells expressing MMP-11 [4] | PHF cells expressing MMP-13 [4] | PHF cells expressing MMP-14 [4] | PHF cells expressing SPARC [4] | PHF cells expressing TGF-α [4] | PHF cells expressing TGF-β1 [4] | PHF cells expressing TGF-β2 [4] | PHF cells expressing TGF-β3 [4] | PHF cells expressing MMP-3 [5] | PHF cells expressing MMP-7 [5] | PHF cells expressing MMP-9 [5] | PHF cells expressing MMP-11 [5] | PHF cells expressing MMP-13 [5] | PHF cells expressing MMP-14 [5] | PHF cells expressing SPARC [5] | PHF cells expressing TGF-α [5] | PHF cells expressing TGF-β1 [5] | PHF cells expressing TGF-β2 [5] | PHF cells expressing TGF-β3 [5] | PHF cells expressing MMP-3 [6] | PHF cells expressing MMP-7 [6] | PHF cells expressing MMP-9 [6] | PHF cells expressing MMP-11 [6] | PHF cells expressing MMP-13 [6] | PHF cells expressing MMP-14 [6] | PHF cells expressing SPARC [6] | PHF cells expressing TGF-α [6] | PHF cells expressing TGF-β1 [6] | PHF cells expressing TGF-β2 [6] | PHF cells expressing TGF-β3 [6] | cells expressing MMP-3 [7] | cells expressing MMP-7 [7] | cells expressing MMP-9 [7] | cells expressing MMP-11 [7] | cells expressing MMP-13 [7] | cells expressing MMP-14 [7] | cells expressing SPARC [7] | cells expressing TGF-α [7] | cells expressing TGF-β1 [7] | cells expressing TGF-β2 [7] | cells expressing TGF-β3 [7] | cells expressing MMP-3 [8] | cells expressing MMP-7 [8] | cells expressing MMP-9 [8] | cells expressing MMP-11 [8] | cells expressing MMP-13 [8] | cells expressing MMP-14 [8] | cells expressing SPARC [8] | cells expressing TGF-α [8] | cells expressing TGF-β1 [8] | cells expressing TGF-β2 [8] | cells expressing TGF-β3 [8] | cells expressing MMP-3 [9] | cells expressing MMP-7 [9] | cells expressing MMP-9 [9] | cells expressing MMP-11 [9] | cells expressing MMP-13 [9] | cells expressing MMP-14 [9] | cells expressing SPARC [9] | cells expressing TGF-α [9] | cells expressing TGF-β1 [9] | cells expressing TGF-β2 [9] | cells expressing TGF-β3 [9] | Percentage of mononuclear leukocytes cells which expressed NF-kB [10, 12] | Percentage of mononuclear leukocytes cells which expressed TGF-β [10, 12] | Percentage of polymorphonuclear leukocytes cells which expressed NF-kB [10, 12] | Percentage of polymorphonuclear leukocytes cells which expressed TGF-β [10, 12] | Percentage of mononuclear leukocytes cells expressing NF-kB [10, 13] | Percentage of mononuclear leukocytes cells expressing TGF-β [10, 13] | Percentage of polymorphonuclear leukocytes cells expressing NF-kB [10, 13] | Percentage of polymorphonuclear leukocytes cells expressing TGF-β [10, 13] | Percentage of mononuclear leukocytes cells which expressed NF-kB [10, 14] | Percentage of mononuclear leukocytes cells which expressed TGF-β [10, 14] | Percentage of polymorphonuclear leukocytes cells which expressed NF-kB [10, 14] | Percentage of polymorphonuclear leukocytes cells which expressed TGF-β [10, 14] | Percentage of mononuclear leukocytes cells which expressed NF-kB [10, 15] | Percentage of mononuclear leukocytes cells which expressed TGF-β [10, 15] | Percentage of polymorphonuclear leukocytes cells which expressed NF-kB [10, 15] | Percentage of polymorphonuclear leukocytes cells which expressed TGF-β [10, 15] | Percentage of mononuclear leukocytes cells which expressed NF-kB [10, 16] | Percentage of mononuclear leukocytes cells which expressed TGF-β [10, 16] | Percentage of polymorphonuclear leukocytes cells which expressed NF-kB [10, 16] | Percentage of polymorphonuclear leukocytes cells which expressed TGF-β [10, 16] | Percentage of macrophages which expressed EGF [11, 17] | Percentage of macrophages which expressed MMP-9 [11, 17] | Percentage of macrophages which expressed VEGF [11, 17] | Percentage of macrophages which expressed EGF [11, 12] | Percentage of macrophages which expressed MMP-9 [11, 12] | Percentage of macrophages which expressed VEGF [11, 12] | Percentage of macrophages which expressed EGF [11, 14] | Percentage of macrophages which expressed MMP-9 [11, 14] | Percentage of macrophages which expressed VEGF [11, 14] | Percentage of macrophages which expressed EGF [11, 15] | Percentage of macrophages which expressed MMP-9 [11, 15] | Percentage of macrophages which expressed VEGF [11, 15] | Percentage of macrophages which expressed EGF [11, 18] | Percentage of macrophages which expressed MMP-9 [11, 18] | Percentage of macrophages which expressed VEGF [11, 18]
